# Measurements reported in patent US12581252B2, “Substituted pyrrolo[3,4-b]pyridines as PI3K-α inhibitors” (Relay Therapeutics, Inc., priority 2020, dated 2026).
# Target: H1047R PIK3CA enzyme (Homo sapiens, UniProt P42336, H1047R)
# Assay: ADP-Glo Biochemical PIK3CA Kinase Assay
# H1047R PIK3CA enzyme, sequence (P42336 whole entry H1047R): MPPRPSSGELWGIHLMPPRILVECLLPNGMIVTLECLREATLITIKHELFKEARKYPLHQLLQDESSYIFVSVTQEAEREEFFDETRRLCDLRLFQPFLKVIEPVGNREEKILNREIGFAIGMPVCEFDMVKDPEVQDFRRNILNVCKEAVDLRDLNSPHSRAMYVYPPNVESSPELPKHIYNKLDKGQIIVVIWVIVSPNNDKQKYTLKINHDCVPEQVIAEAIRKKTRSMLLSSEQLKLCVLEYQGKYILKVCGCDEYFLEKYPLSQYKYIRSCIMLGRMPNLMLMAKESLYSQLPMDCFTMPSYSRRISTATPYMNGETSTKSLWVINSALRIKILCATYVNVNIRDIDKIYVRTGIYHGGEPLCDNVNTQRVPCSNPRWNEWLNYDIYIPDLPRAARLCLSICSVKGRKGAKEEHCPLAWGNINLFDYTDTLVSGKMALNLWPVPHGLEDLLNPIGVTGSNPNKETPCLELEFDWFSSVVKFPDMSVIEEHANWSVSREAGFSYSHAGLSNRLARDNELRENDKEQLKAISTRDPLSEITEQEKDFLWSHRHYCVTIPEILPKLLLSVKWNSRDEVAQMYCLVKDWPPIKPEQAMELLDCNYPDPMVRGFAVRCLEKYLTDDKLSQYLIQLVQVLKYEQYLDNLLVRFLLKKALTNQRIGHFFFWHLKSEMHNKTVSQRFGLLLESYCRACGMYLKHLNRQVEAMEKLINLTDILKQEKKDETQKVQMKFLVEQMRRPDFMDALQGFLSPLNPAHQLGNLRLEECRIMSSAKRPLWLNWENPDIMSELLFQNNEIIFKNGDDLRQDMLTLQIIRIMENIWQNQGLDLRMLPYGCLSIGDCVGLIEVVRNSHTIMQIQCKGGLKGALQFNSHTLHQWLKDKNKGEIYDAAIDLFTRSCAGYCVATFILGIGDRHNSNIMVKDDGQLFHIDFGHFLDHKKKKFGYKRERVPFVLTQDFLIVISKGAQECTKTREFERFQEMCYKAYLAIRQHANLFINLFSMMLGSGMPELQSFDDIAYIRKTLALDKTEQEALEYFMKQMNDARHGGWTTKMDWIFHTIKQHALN
# H1047R PIK3CA enzyme, sequence (P27986 whole entry partner): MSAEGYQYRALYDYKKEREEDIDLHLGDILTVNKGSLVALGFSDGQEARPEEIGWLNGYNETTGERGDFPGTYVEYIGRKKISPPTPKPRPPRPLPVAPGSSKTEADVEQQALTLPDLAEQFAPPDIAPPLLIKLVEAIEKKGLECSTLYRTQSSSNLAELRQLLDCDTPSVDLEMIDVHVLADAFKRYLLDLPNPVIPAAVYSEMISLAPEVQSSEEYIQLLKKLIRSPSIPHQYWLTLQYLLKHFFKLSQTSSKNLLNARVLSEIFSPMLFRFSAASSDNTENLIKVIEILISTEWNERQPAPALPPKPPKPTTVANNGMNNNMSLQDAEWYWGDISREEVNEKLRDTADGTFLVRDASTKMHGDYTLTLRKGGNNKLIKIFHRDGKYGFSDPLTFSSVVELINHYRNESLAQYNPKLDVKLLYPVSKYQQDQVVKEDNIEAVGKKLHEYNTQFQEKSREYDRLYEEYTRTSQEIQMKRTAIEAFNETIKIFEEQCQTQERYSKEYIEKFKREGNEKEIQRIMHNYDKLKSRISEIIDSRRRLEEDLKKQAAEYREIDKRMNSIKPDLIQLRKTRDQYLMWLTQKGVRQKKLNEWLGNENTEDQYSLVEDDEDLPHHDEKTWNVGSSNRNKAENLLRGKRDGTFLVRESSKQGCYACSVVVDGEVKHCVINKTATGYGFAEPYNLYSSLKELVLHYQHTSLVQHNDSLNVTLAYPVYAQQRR
row,IC50 [nM],Compound
1,≤ 100,O=C(Nc1cc(B(O)O)cc2c1C(c1cc(F)ccc1Cl)NC2=O)c1cc(F)cc(C(F)(F)F)c1 (centres unmarked) [Compound I-362]
2,≤ 100,N#Cc1ncccc1-c1cc(NC(=O)c2cc(F)cc(C(F)(F)F)c2)c2c(c1)C(=O)NC2c1cc(F)ccc1Cl (centres unmarked) [Compound I-1214]
3,10000 to 100000,O=C(CC1CCC1)Nc1cc(-c2ccc3ncnn3c2)cc2c1C(c1cc(F)ccc1Cl)NC2=O (centres unmarked) [Compound I-1777]
4,1000 to 10000,COc1ccc(Cl)cc1C(=O)Nc1cc(Br)cc2c1C(c1cc(F)ccc1Cl)NC2=O (centres unmarked) [Compound I-799]
5,10000 to 100000,"N#Cc1cnn(Cc2cc(NC(=O)N3C[C@@](O)(C(F)(F)F)c4cc(F)ccc43)c3c(c2)C(=O)N[C@H]3c2cc(F)ccc2Cl)c1 (single isomer, unassigned) [Compound I-2672]"
6,≤ 100,"C[C@H](c1cc(NC(=O)c2cc(F)cc(C(F)(F)F)c2)c2c(c1)C(=O)N[C@H]2c1cc(F)ccc1Cl)S(C)(=O)=O (single isomer, unassigned) [Compound I-1642]"
7,≤ 100,O=C(Nc1cc(-c2ccc3ncc(C(F)F)n3c2)cc2c1C(c1cc(F)ccc1Cl)NC2=O)c1cc(F)cc(C(F)(F)F)c1 (centres unmarked) [Compound I-1866]
8,≤ 100,O=C(Nc1cc(-c2ccc3nnc(Cl)n3c2)cc2c1[C@H](c1cc(F)ccc1Cl)NC2=O)c1cc(F)cc(C(F)(F)F)c1 [Compound I-1734]
9,≤ 100,O=C(Nc1cc(CN2CCC(F)(F)C2)cc2c1C(c1cc(F)ccc1Cl)NC2=O)c1cc(F)cc(C(F)(F)F)c1 (centres unmarked) [Compound I-353]
10,≤ 100,Cc1ccccc1[C@@H]1NC(=O)c2cccc(NC(=O)c3nsc4ccccc34)c21 [Compound I-72]
11,10000 to 100000,Cc1ccccc1C1NC(=O)c2cccc(NC(=O)c3cnc(OC(C)C)c(F)c3)c21 (centres unmarked) [Compound I-109]
12,10000 to 100000,O=C1NC(c2cc(F)ccc2Cl)c2c(NC(=O)N3CCc4ccccc4CC3)cccc21 (centres unmarked) [Compound I-2308]
13,≤ 100,COCc1cc(NC(=O)c2cc(F)cc(C(F)(F)F)c2)c2c(c1)C(=O)NC2c1cc(F)ccc1Cl (centres unmarked) [Compound I-611]
14,1000 to 10000,O=C(Nc1cc(Br)cc2c1[C@@H](c1ccccc1C(F)F)NC2=O)c1cc(F)cc(C(F)(F)F)c1 [Compound I-790]
15,10000 to 100000,O=C(Nc1cccc2c1C(c1ccnc(O)c1)NC2=O)c1cc(F)cc(C(F)(F)F)c1 (centres unmarked) [Compound I-658]
16,≤ 100,O=C(Nc1cc(-c2ccc3nc[nH]c3c2)cc2c1C(c1cc(F)ccc1Cl)NC2=O)c1cc(F)cc(C(F)(F)F)c1 (centres unmarked) [Compound I-1035]
17,≤ 100,Nc1nnc2ccc(-c3cc(NC(=O)c4cc(F)cc(C(F)(F)F)c4)c4c(c3)C(=O)N[C@H]4c3cc(F)ccc3Cl)cn12 [Compound I-1449]
18,≤ 100,O=C(Nc1cccc2c1C(c1cc(F)ccc1C(F)F)NC2=O)c1cc(F)cc(C(F)(F)F)c1 (centres unmarked) [Compound I-138]
19,≤ 100,CCn1cc(-c2cc(NC(=O)c3cc(F)cc(C(F)(F)F)c3)c3c(n2)C(=O)NC3c2cc(F)ccc2Cl)ccc1=O (centres unmarked) [Compound I-586]
20,1000 to 10000,O=C(Nc1cccc2c1C(c1ccc(C3CC3)cc1Cl)NC2=O)c1cc(F)cc(C(F)(F)F)c1 (centres unmarked) [Compound I-424]
21,≤ 100,CC(C)[C@H](N)C(=O)N1C(=O)c2cc(-c3ccc4ncnn4c3)cc(NC(=O)c3cc(F)cc(C(F)(F)F)c3)c2C1c1cc(F)ccc1Cl (some centres unmarked) [Compound I-1343]
22,≤ 100,O=C(Nc1cc(CN2CCNCC2)cc2c1C(c1cc(F)ccc1Cl)NC2=O)c1cc(F)cc(C(F)(F)F)c1 (centres unmarked) [Compound I-350]
23,≤ 100,Cn1nccc1Nc1cc(NC(=O)c2cc(F)cc(C(F)(F)F)c2)c2c(c1)C(=O)N[C@H]2c1cc(F)ccc1Cl [Compound I-1144]
24,≤ 100,O=C(Nc1cc(-c2cnc(-n3cccn3)nc2)cc2c1C(c1cc(F)ccc1Cl)NC2=O)c1cc(F)cc(C(F)(F)F)c1 (centres unmarked) [Compound I-1483]
25,500 to 1000,O=C(Nc1cc(Br)cc2c1[C@@H](c1cc(F)cc(F)c1Cl)NC2=O)c1cc(F)cc(C(F)(F)F)c1 [Compound I-806]

# Second part, the compound before the results:
row,Compound,IC50 [nM]
1,O=C(Nc1cccc2c1C(C(=O)N1CCCCC1)NC2=O)c1cc(F)cc(C(F)(F)F)c1 (centres unmarked) [Compound I-2041],10000 to 100000
2,"O=C1N[C@@H](c2cc(F)ccc2Cl)c2c(NC(=O)[C@@H]3C[C@@H](O)C[C@H](C(F)(F)F)C3)cccc21 (single isomer, unassigned) [Compound I-2175]",10000 to 100000
3,O=C(Nc1cc(-c2ccc3nc(C(F)F)cn3c2)cc2c1[C@@H](c1cc(F)ccc1Cl)NC2=O)c1cc(F)cc(C(F)(F)F)c1 [Compound I-1928],1000 to 10000
4,"CN1C[C@H](Nc2cc(NC(=O)c3cc(F)cc(C(F)(F)F)c3)c3c(c2)C(=O)NC3c2cc(F)ccc2Cl)CC1=O (single isomer, unassigned) [Compound I-343]",≤ 100
5,[2H]c1nc2cnc(-c3cc(NC(=O)c4cc(F)cc(C(F)(F)F)c4)c4c(c3)C(=O)N[C@@H]4c3cc(F)ccc3Cl)cn2n1 [Compound I-2068],1000 to 10000
6,O=C1NC(c2cc(F)ccc2Cl)c2c(Nc3nsc4ccccc34)cc(Br)cc21 (centres unmarked) [Compound I-1060],10000 to 100000
7,CS(=O)(Cc1cc(NC(=O)c2cc(F)cc(C(F)(F)F)c2)c2c(c1)C(=O)NC2c1cc(F)ccc1Cl)=Nc1cccnc1 (centres unmarked) [Compound I-1486],≤ 100
8,O=C(Nc1cc(Br)cc2c1C(c1cc(F)c(F)cc1Cl)NC2=O)c1cc(F)cc(C(F)(F)F)c1 (centres unmarked) [Compound I-678],≤ 100
9,O=C(Nc1cc(Br)cc2c1C(c1cc(F)ccc1Cl)NC2=O)c1cccc(OC(F)(F)F)c1 (centres unmarked) [Compound I-514],500 to 1000
10,N#Cc1cccc([S+]([O-])Cc2cc(NC(=O)c3cc(F)cc(C(F)(F)F)c3)c3c(c2)C(=O)NC3c2cc(F)ccc2Cl)c1 (centres unmarked) [Compound I-1487],≤ 100
11,O=C(Nc1cc(-c2ccc3ncc(F)n3c2)cc2c1C(c1cc(F)ccc1Cl)NC2=O)c1cc(F)cc(C(F)(F)F)c1 (centres unmarked) [Compound I-1793],≤ 100
12,O=C1NC(c2cc(F)ccc2Cl)c2c(NC(=O)C34CCC(C(O)C(F)(F)F)(CC3)C4)cccc21 (centres unmarked) [Compound I-2285],10000 to 100000
13,N#Cc1ccc2c(c1)CCN2c1cc(NC(=O)c2cc(F)cc(C(F)(F)F)c2)c2c(c1)C(=O)NC2c1cc(F)ccc1Cl (centres unmarked) [Compound I-1263],≤ 100
14,COc1cccc(C(=O)Nc2cc(Br)cc3c2C(c2cc(F)ccc2Cl)NC3=O)c1 (centres unmarked) [Compound I-469],10000 to 100000
15,"O=C1NC(c2cc(F)ccc2Cl)c2c(NC3CCCNC3)cc(-c3ccc4ncnn4c3)cc21 (centres unmarked) [Compound I-2158, 6-([1,2,4]triazolo[1,5-a]pyridin-6-yl)-3-(2-chloro-5-fluorophenyl)-4-(piperidin-3-ylamino)isoindolin-1-one]",10000 to 100000
16,Cc1ccccc1C1NC(=O)c2cccc(NC(=O)c3coc4c(F)cc(F)cc34)c21 (centres unmarked) [Compound I-58],100 to 500
17,O=C1NC(c2cc(F)ccc2Cl)c2c(NC(=O)C3CCCC3)cc(-c3ccc4ncnn4c3)cc21 (centres unmarked) [Compound I-1782],10000 to 100000
18,"CC[C@]1(O)CN(C(=O)Nc2cccc3c2[C@H](c2cc(F)ccc2Cl)NC3=O)c2ccc(F)cc21 (single isomer, unassigned) [Compound I-2462]",1000 to 10000
19,O=C(Nc1cc(Br)cc2c1[C@H](c1cccc(F)c1Cl)NC2=O)c1cc(F)cc(C(F)(F)F)c1 [Compound I-669],≤ 100

row,Compound,IC50 [nM]
1,CC(C)(O)COc1cc(NC(=O)c2cc(F)cc(C(F)(F)F)c2)c2c(c1)C(=O)N[C@@H]2c1cc(F)ccc1Cl [Compound I-739],1000 to 10000
2,O=C1NC(c2cc(F)ccc2Cl)c2c1cccc2-c1nc2c(F)cc(C(F)(F)F)cc2[nH]1 (centres unmarked) [Compound I-1944],≤ 100
3,CCOc1ncc(C(=O)Nc2cccc3c2C(c2ccccc2C)NC3=O)cc1F (centres unmarked) [Compound I-107],10000 to 100000
4,O=C(Nc1cc(-c2ccc(C(F)F)nc2)cc2c1[C@@H](c1cc(F)ccc1Cl)NC2=O)c1cc(F)cc(C(F)(F)F)c1 [Compound I-2004],1000 to 10000
5,O=C(Nc1cccc2c1[C@@H](CC1CCCC1)NC2=O)c1cc(F)cc(C(F)(F)F)c1 [Compound I-2154],1000 to 10000
6,N#CN1CC(Oc2cc(NC(=O)c3cc(F)cc(C(F)(F)F)c3)c3c(c2)C(=O)NC3c2cc(F)ccc2Cl)C1 (centres unmarked) [Compound I-1205],≤ 100
7,"C[C@H](C#N)Oc1cc(NC(=O)c2cc(F)cc(C(F)(F)F)c2)c2c(c1)C(=O)N[C@@H]2c1cc(F)ccc1Cl (single isomer, unassigned) [Compound I-2005]",1000 to 10000
8,O=C(O)c1cc(F)cc(C(=O)Nc2cc(Br)cc3c2C(c2cc(F)ccc2Cl)NC3=O)c1 (centres unmarked) [Compound I-954],10000 to 100000
9,"O=C(Nc1cccc2c1[C@@H](C1CC1)NC2=O)c1cc(F)cc(C(F)(F)F)c1 (single isomer, unassigned) [Compound I-2220]",10000 to 100000
10,O=C(Nc1cc(Br)cc2c1[C@H](c1cc(F)cc(F)c1Cl)NC2=O)c1cc(F)cc(C(F)(F)F)c1 [Compound I-805],≤ 100
11,O=C(Nc1cc(C2=CN3CCN=C3C=C2)cc2c1[C@H](c1cc(F)ccc1Cl)NC2=O)c1cc(F)cc(C(F)(F)F)c1 [Compound I-2090],≤ 100
12,CSC(C)c1cc(NC(=O)c2cc(F)cc(C(F)(F)F)c2)c2c(c1)C(=O)NC2c1cc(F)ccc1Cl (racemic) [Compound I-1490],≤ 100
13,O=C(Nc1cc(-c2ccn3ncnc3c2F)cc2c1C(c1cc(F)ccc1Cl)NC2=O)c1cc(F)cc(C(F)(F)F)c1 (centres unmarked) [Compound I-1698],≤ 100
14,O=C(Nc1cc(Br)cc2c1C(c1cc(F)ccc1Cl)NC2=O)c1ccc(C(F)(F)F)o1 (centres unmarked) [Compound I-1423],1000 to 10000
15,"CC(=O)c1cc(NC(=O)c2cc(F)cc(C(F)(F)F)c2)c2c(c1)C(=O)NC2c1cc(F)ccc1Cl (centres unmarked) [Compound I-127, N-(6-Acetyl-3-(2-chloro-5-fluorophenyl)-1-oxoisoindolin-4-yl)-3-fluoro-5-(trifluoromethyl)benzamide]",≤ 100
16,N#Cc1cnccc1-c1cc(NC(=O)c2cc(F)cc(C(F)(F)F)c2)c2c(n1)C(=O)NC2c1cc(F)ccc1Cl (centres unmarked) [Compound I-549],≤ 100
17,"CNc1cc(NC(=O)N2C[C@@](O)(C(F)(F)F)c3cc(F)ccc32)c2c(n1)C(=O)N[C@H]2c1cc(F)ccc1Cl (single isomer, unassigned) [Compound I-2646]",500 to 1000
18,C=CCCCOc1cc(NC(=O)c2cc(F)cc(C(F)(F)F)c2)c2c(c1)C(=O)NC2c1cc(F)ccc1Cl (centres unmarked) [Compound I-1234],500 to 1000
